Experimental data reported in EP4606382A1, “INHIBITORS OF TANGO1 ACTIVITY AND METHODS OF USE THEREOF” (Fundació Centre de Regulació Genòmica, priority 2024, dated 2025).
Ends that are not written are not given here.

System: normal human skin fibroblasts
Test: LDH release cytotoxicity assay
Assay type: cell-based
Details: primary human skin fibroblasts
Description: To test if the peptides efficiently reduce collagen secretion also in primary cells derived from human individuals, normal human skin fibroblasts, the key producers of collagen in connective tissues, were treated with the peptides P2 and P5.
Cytotoxic effects induced by peptide treatment were determined by lactate dehydrogenase (LDH) levels in fibroblast supernatants using Cytotoxicity Assay (Promega G1780) according to the manufacturer's instructions.

Substance	cytotoxic effects (LDH release)
LRQKVEILNELYQQKEMALQKKLSQEEYERGLRKRLRKFRNK-NH2 [Peptide P2]	neither P2 nor P5 nor P2+P5 exerted cytotoxic effects
LEKEEKLSKVDEKISHATEELETYRKRAKDLGLRKRLRKFRNK-NH2 [Peptide P5]	neither P2 nor P5 nor P2+P5 exerted cytotoxic effects
